Experimental data as given in patent publication US20240358808A1, “VACCINE FOR SARS-COV-2” (FLOW PHARMA, INC., priority 2021, published 2024).

Target: DRB3*0202 (Homo sapiens, UniProt P01903+P79483, A212P/D57E/F66Y/L67A/R103Q/R218S/R40L/S89Y/T80R/V86D/Y55F/Y59H)
Assay: peptide affinity binding assay (peptide-MHC binding)

Chain of DRB3*0202 (P01903 26-254 limits assumed): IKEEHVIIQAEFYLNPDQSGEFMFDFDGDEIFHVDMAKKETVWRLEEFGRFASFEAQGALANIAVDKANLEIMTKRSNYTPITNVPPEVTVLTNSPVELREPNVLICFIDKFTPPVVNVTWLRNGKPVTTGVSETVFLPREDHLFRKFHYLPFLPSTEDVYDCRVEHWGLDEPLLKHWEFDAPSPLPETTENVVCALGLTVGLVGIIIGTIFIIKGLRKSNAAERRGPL
Chain of DRB3*0202 (P79483 30-266 R40L/Y55F/D57E/Y59H/F66Y/L67A/T80R/V86D/S89Y/R103Q/A212P/R218S limits assumed): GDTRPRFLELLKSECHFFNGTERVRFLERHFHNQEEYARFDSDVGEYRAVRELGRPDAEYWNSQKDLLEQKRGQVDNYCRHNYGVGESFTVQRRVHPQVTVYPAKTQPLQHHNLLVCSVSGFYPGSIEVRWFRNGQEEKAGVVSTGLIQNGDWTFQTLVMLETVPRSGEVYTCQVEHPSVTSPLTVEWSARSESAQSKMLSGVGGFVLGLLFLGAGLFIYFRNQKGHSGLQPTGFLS

CC(C)C[C@H](NC(=O)[C@@H](NC(=O)[C@H](Cc1c[nH]c2ccccc12)NC(=O)[C@H](C)NC(=O)[C@H](C)NC(=O)[C@@H](NC(=O)[C@H](Cc1ccccc1)NC(=O)[C@H](CCCCN)NC(=O)[C@H](C)N)C(C)C)[C@@H](C)O)C(=O)N[C@@H](CCCCN)C(=O)N[C@@H](C)C(=O)N[C@@H](C)C(=O)N[C@@H](C)C(=O)O [PADRE]
peptide-MHC binding affinity before and after the addition of an infrared fluorophore ligand: essentially unchanged
